In brackets after ≈: the same amount, converted by molar mass. Several values for one entry are separate records, joined by “and”; a condition that tells them apart may be missing. Identical values can stand only once.
Key:
[1] = Solubility in HEPES buffer with 2% DMSO, spectrophotometric; type: physicochemical; conditions: HEPES buffer containing 2% DMSO, 25 °C, aqueous buffer, kinetic from dmso stock; HEPES buffer pH 6.8 containing 2% DMSO
Procedure: 3.2. Solubility of Compounds. Stock solutions of compounds were prepared in
DMSO (spectroscopic grade, Merck) a nd stored at -20 °C. Compound solubility in 50
mM HEPES-KOH, 50 mM KCl, 1 mM EDTA, pH 6.8 (HEPES buffer) containing 2%
DMSO was determined spectrophotometrically, monitoring the linear correlation
between the absorbance and the compound concentration and the absence of light
scattering. The solutions were optionally centrifuged at 100000 rpm for 20 min at 25 °C
in a TLA100 rotor with a Beckman Optima Max -XP ultracentrifuge.

[2] = biological target: T1, stabilized FtsZ-GMPCPP polymers (BsFtsZ) (Bacillus subtilis, UniProt P17865); assay: Competition assay: displacement of probe (S)-2 from stabilized FtsZ-GMPCPP polymers; type: binding; conditions: KD, (S)-2 3 μM, 8 μM binding sites
T1 construct: made in house
T1 sequence (P17865 whole entry): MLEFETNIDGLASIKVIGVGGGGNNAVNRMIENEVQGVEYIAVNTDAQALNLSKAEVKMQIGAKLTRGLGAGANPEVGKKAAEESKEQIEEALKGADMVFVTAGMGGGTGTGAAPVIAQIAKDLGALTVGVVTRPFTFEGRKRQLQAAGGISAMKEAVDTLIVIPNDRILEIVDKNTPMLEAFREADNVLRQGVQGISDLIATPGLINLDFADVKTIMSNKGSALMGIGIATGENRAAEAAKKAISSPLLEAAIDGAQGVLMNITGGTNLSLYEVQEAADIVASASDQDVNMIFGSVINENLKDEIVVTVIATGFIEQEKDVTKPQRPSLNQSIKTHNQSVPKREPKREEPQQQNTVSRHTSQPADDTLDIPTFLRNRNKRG
Procedure: (§1) FtsZ (10–15 μM) was assembled in HEPES buffer, 10 mM MgCl2, 50 μM GMPCPP at 25 °C for 10 min, and then 0.15% (v/v) glutaraldehyde[36] (distilled grade for microscopy, TAAB Laboratories, U.K.) was added to the solution that was incubated at 25 °C for 10 min more. (This was the minimal glutaraldehyde concentration determined to stabilize FtsZ polymers specifically binding probe 1.) The remains of the cross-linking agent were quenched by adding 60 mM NaBH4, the sample was incubated on ice for 10 min and degassed.[36] Cross-linked polymers were centrifuged for 10 min at 8200g (5000 rpm) and 4 °C in 15 mL Falcon tubes employing a Rotina 380R (Hettich) centrifuge, the supernatant was removed and the pellet was resuspended in the same volume of HEPES buffer, 10 mM MgCl2, containing 5 μM GMPCPP. Fixed FtsZ polymers were active in binding assays after more than 2 days at 4 °C; they could also be frozen in liquid nitrogen with a small loss of binding capacity. […] Cross-linked polymers of SaFtsZ were similarly prepared.
(§2) Competition assays were performed by measuring, through the decrease in fluorescence anisotropy, the displacement of the fluorescent probes from stabilized FtsZ polymers. Increasing concentrations of competing ligands were added to the mixtures of cross-linked FtsZ polymers (10–15 μM) with probe 1 (3 μM), 7–8 μM FtsZ polymers with probe (S)-2 (3 μM), or 2–3 μM FtsZ polymers with (R)-5 (3 μM). HEPES buffer with 10 mM MgCl2 and 0.1 mM GMPCPP was employed, with a final volume of 0.5 mL, and the anisotropy measured at 25 °C. Under these conditions, the initial fraction of the probe bound was between 0.4 and 0.5. The fraction of the probe bound (Vb) was calculated [drawing 1] where rfree and rmax are the anisotropy values of the free and bound probes, respectively, and R is the ratio between the fluorescence intensities of the bound and free probe (Table S1). The binding data were plotted against the competing ligand concentration and fitted by competition equilibrium of the ligand and the probe for the same binding site. The resulting system of equations[50] was numerically solved using the Equigra v. 5.0 program,[33] which provided the best-fitted value of the competitor binding constant.

[3] = biological target: T2, stabilized FtsZ-GMPCPP polymers (Bacillus subtilis, UniProt P17865); assay: Fluorescence anisotropy screen with probe (S)-2 at two compound concentrations; type: binding; conditions: probe (S)-2 3 μM, compound 20 and 200 μM
T2 construct: made in house
T2 sequence (P17865 whole entry): as above
Procedure: Once the fluorescence method for ligand binding into the interdomain cleft was set up, we evaluated its potential to screen for FtsZ allosteric inhibitors. Complementary to this screen, cytological profiling tests of the identified binders allow ascertaining their ability to target FtsZ in bacterial cells. Fluorescence anisotropy measurements of probe (S)-2 at two concentrations of each tested compound (20 and 200 μM) were acquired; the solubility range of positively testing compounds was determined spectrophotometrically. […] The promiscuous inhibitors resveratrol,[40] plumbagin,[41] and tiplaxtinin[42] […] It should be noticed that aggregating compounds may sequester the protein or the probe or may scatter highly polarized light, potentially interfering with the fluorescence anisotropy measurements. Colored and fluorescent compounds can also interfere. Compounds initially testing positive in the anisotropy screen should thus be checked for any unexpected changes of the total fluorescence intensity in the same samples, as well as for any artefactual effects on replicates omitting FtsZ.
(§3) Figure 4 Fluorescence anisotropy screen for FtsZ allosteric inhibitors combined with cell-based methods. (A) Screen for FtsZ inhibitors employing the fluorescence anisotropy of probe (S)-2 (3 μM) and stabilized FtsZ-GMPCPP polymers (8 μM binding sites). The anisotropy values of the partially bound probe (void black circles), the free probe (void gray circles), and the values with two concentrations of each compound, 20 μM (gray circles) and 200 μM (black circles) are shown. Control values with the corresponding concentrations of dimethyl sulfoxide (DMSO) vehicle (2% void and gray circles; 4%, black circle) are also shown. (B) Chemical structures of synthetic ligands 6–26. (C) Effects of low-affinity inhibitors 6, 7, and 9 on B. subtilis 168 cell division. Raw data plots (n ≥ 30) are shown with the mean values marked (statistics in Table S2). The cells were incubated for 3 h with each compound, and cell lengths were measured. (D) Representative phase-contrast images of cells after 3 h with 7 or 9 (0.75 mM each). (E) Cellular localization of FtsZ-GFP in B. subtilis SU570 following growth for 1.5 h in the absence (inset) and presence of 7 (0.2 mM). Bars, 10 μm.
as §2

B. subtilis 168 [4] = assay: Cell length of B. subtilis 168 incubated with FtsZ inhibitors; type: cell-based, Bacillus subtilis; design: unit not given here; conditions: B. subtilis 168, 3 h, mean and standard error, n ≥ 30
Procedure: as §3, with “The anisotropy values of the partially bound probe (void black circles), the free probe (void gray circles), and the values with two concentrations of each compound, 20 μM (gray circles) and 200 μM (black circles) are shown.” left out, “(B) Chemical structures of synthetic ligands 6–26. (C) Effects of low-affinity inhibitors 6, 7, and 9 on B. subtilis 168 cell division.” left out
(§4) B. subtilis 168 and Staphylococcus spp. were grown in cation adjusted Mueller–Hinton broth (CAMHB; Becton, Dickinson and Company) at 37 °C. B. subtilis SU570 were grown in the same medium at 30 °C. In all cases, the cells were grown to an absorbance of 0.1–0.2 at 600 nm and then incubated either with the compounds or DMSO vehicle. Microscopy assays and cell measurement were performed as previously described.[31] MIC values were determined by a broth macrodilution method.[51] […] To construct a S. aureus strain expressing FtsZ-mCherry, the plasmid pCN-ftsZmch[9] was electroporated into RN4220 and 0.1 μM cadmium chloride (Sigma-Aldrich) was used to induce the expression of the construct under the control of the Pcad promoter. […]

S. aureus Mu50 [5] = assay: Minimal division inhibitory concentration, S. aureus Mu50; type: cell-based; conditions: Staphylococcus aureus, MU50, read-out: MDC S. aureus Mu50
Procedure: (§5) B. subtilis 168 and Staphylococcus spp. were grown in cation adjusted Mueller–Hinton broth (CAMHB; Becton, Dickinson and Company) at 37 °C. B. subtilis SU570 were grown in the same medium at 30 °C. In all cases, the cells were grown to an absorbance of 0.1–0.2 at 600 nm and then incubated either with the compounds or DMSO vehicle. Microscopy assays and cell measurement were performed as previously described.[31] MIC values were determined by a broth macrodilution method.[51] MBC values were determined as the lowest concentration of inhibitor at which there was a 99.9% reduction in colony-forming units/mL compared to the inoculum. To construct a S. aureus strain expressing FtsZ-mCherry, the plasmid pCN-ftsZmch[9] was electroporated into RN4220 and 0.1 μM cadmium chloride (Sigma-Aldrich) was used to induce the expression of the construct under the control of the Pcad promoter.

MTT cytotoxicity assay = type: cell-based; conditions: human, IMR90 lung fibroblast cells; IMR90, 100 µM, relative to vehicle
Procedure: The sensitivity of the IMR90 cell line to compounds was tested through a standard 3-(4,5-dimethylthiazol-2-yl)-2,5-diphenyltetrazolium bromide (MTT) assay.[52] The results were reported as the viability percentage of the tested compound relative to vehicle (DMSO), obtained from two or three independent experiments performed in triplicate.

B. subtilis [6] = assay: Minimal division inhibitory concentration and cell division phenotype, B. subtilis; type: cell-based, Bacillus subtilis; conditions: for minimal effective concentration: Bacillus subtilis, read-out: MDC B. subtilis
Procedure: as §5

B. subtilis [7] = assay: Minimal growth inhibitory concentration (broth macrodilution), B. subtilis; type: cell-based, Bacillus subtilis; conditions: Bacillus subtilis, read-out: MIC B. subtilis
Procedure: as §5

[8] = biological target: T3, stabilized polymers of FtsZ from B. subtilis (Bacillus subtilis, UniProt P17865); assay: Competition assay: displacement of probe (R)-5 from stabilized BsFtsZ-GMPCPP polymers; type: binding; conditions: for Kd: stabilized polymers of FtsZ from B. subtilis, probe (R)-5, mean ± SEM, read-out: KD
T3 construct: made in house
T3 sequence (P17865 whole entry): as above
Procedure: as §1, §2

S. aureus Mu50 [9] = assay: Minimal growth inhibitory concentration (broth macrodilution), S. aureus Mu50; type: cell-based, Staphylococcus aureus; conditions: Staphylococcus aureus, MU50, read-out: MIC S. aureus Mu50
Procedure: as §5

S. aureus = assay: Minimal bactericidal concentration; type: cell-based; conditions: Staphylococcus aureus; 99.9% reduction in colony-forming units/mL
Procedure: as §5

[10] = biological target: T4, stabilized SaFtsZ polymers (Staphylococcus aureus, UniProt P0A031); assay: Competition assay with stabilized SaFtsZ polymers; type: binding; conditions: read-out: KD (in parenthesis) (converted)
T4 construct: Full-length S. aureus FtsZ (SaFtsZ); made in house
T4 sequence (P0A031 whole entry): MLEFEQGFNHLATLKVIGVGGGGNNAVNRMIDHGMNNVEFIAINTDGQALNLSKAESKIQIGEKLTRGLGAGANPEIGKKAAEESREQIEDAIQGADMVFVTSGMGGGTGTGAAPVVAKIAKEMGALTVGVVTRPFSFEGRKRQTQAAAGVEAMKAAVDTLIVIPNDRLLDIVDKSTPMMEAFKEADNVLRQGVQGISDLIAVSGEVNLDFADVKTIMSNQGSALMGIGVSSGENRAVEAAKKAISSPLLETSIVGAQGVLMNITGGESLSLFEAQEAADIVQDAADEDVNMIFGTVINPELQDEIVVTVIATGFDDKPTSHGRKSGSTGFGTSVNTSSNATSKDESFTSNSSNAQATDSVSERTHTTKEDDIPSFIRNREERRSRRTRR
Procedure: Full-length S. aureus FtsZ (SaFtsZ) and the truncated protein SaFtsZ(12–315) were purified as described.[34] SaFtsZ was assembled in 50 mM MES, 50 mM KCl, 1 mM EDTA, pH 6.5 plus 10 mM MgCl2, and 0.1 mM GMPCPP.
as §1, §2

B. subtilis 168 [11] = assay: Cell length of B. subtilis 168 incubated with FtsZ inhibitors; type: cell-based, Bacillus subtilis; design: unit of the concentration uncertain; unit not given here; conditions: B. subtilis 168, 3 h
Procedure: as §3, with “The anisotropy values of the partially bound probe (void black circles), the free probe (void gray circles), and the values with two concentrations of each compound, 20 μM (gray circles) and 200 μM (black circles) are shown.” left out, “(B) Chemical structures of synthetic ligands 6–26. (C) Effects of low-affinity inhibitors 6, 7, and 9 on B. subtilis 168 cell division.” left out
as §4

SMILES	solubility [1] [µM]	Kd [2]	result of the anisotropy screen, in words [3]	length (B. subtilis 168 [4]; 0.5 mM)	length (B. subtilis 168 [4]; 0.75 mM)	minimal effective concentration (S. aureus Mu50 [5]) [µM]	viability at 100 µM (MTT cytotoxicity assay) [%]	minimal effective concentration (B. subtilis [6]) [µM]	MIC (B. subtilis [7]) [µM]	Kd [8] [µM]	MIC (S. aureus Mu50 [9]) [µM]	MBC (S. aureus) [µM]	Kd [10] [µM]	length (B. subtilis 168 [11]; 10 (unit uncertain) as printed)	fold weaker affinity and MDC than the (R)-enantiomer [8]	fold lower concentration inhibiting B. subtilis division than 3-methoxybenzamide (B. subtilis [6]; 3-methoxybenzamide value from ref 44) [fold]	length (B. subtilis 168 [11]; 2.5 (unit uncertain) as printed)	length (B. subtilis 168 [11]; 5 (unit uncertain) as printed)
NC(=O)c1cccc(NCc2cccc(Cl)c2)c1 [Compound 6]	≥ 100	233 µM and ~200 µM	weak binders	5.9 ± 0.3	8.0 ± 0.2													
NC(=O)c1c(F)ccc(OCc2cccc(Cl)c2)c1F [Compound 18, 3-[(3-Chlorobenzyl)oxy]-2,6-difluorobenzamide]	≥ 100					50	90 ± 7	10	25 (≈ 7.44 µg/mL)	1.3 ± 0.1	100 (≈ 29.8 µg/mL)	100 (≈ 29.8 µg/mL)						
NC(=O)c1ccc(NCc2cccc(Cl)c2)cc1 [Compound 9]	≥ 100	196 µM and ~200 µM	weak binders	6.1 ± 0.3	11.6 ±0.4													
NC(=O)c1c(F)ccc(OCc2nc3cc(Cl)cnc3s2)c1F [PC190723, reference compound]	10 (≈ 3.56 µg/mL)	< 0.1 µM				1		2.5	5 (≈ 1.78 µg/mL)	< 0.1	5 (≈ 1.78 µg/mL)	5 (≈ 1.78 µg/mL)	< 0.1					
CCC[C@@H](COc1ccc(F)c(C(N)=O)c1F)Nc1cccc(C(F)(F)F)c1 [(S)-26]	100 (≈ 40.2 µg/mL)					100		> 10	50 (≈ 20.1 µg/mL)	3.8 ± 0.2	100 (≈ 40.2 µg/mL)		7	4.9 ± 0.2	10–20 fold			
CN(Cc1cccc(Cl)c1)c1cccc(C(N)=O)c1 [Compound 7]	≥ 100	159 µM and ~200 µM	weak binders	8.5 ± 0.3	24.7 ±0.8											~20		
NC(=O)c1c(F)ccc(OCCNc2cccc(C(F)(F)F)c2)c1F [Compound 25, 2,6-Difluoro-3-(2-{[3-(trifluoromethyl)phenyl]amino}ethoxy)benzamide]	100 (≈ 36 µg/mL)					50	88 ± 1	5	10 (≈ 3.6 µg/mL)	1.9 ± 0.2	100 (≈ 36 µg/mL)	100 (≈ 36 µg/mL)	0.3				4.8 ± 0.1	27.4 ±0.9
